Experimental data as given in patent US11839679B2, “Gamma-diketones for treatment and prevention of aging skin and wrinkles” (BioSplice Therapeutics, Inc., priority 2014, dated 2023).

System: fine lines, wrinkles in the outer canthus of the eyes (crow's feet area)
Assay: Panelist self-assessment questionnaire, Example 1
Type: in vivo, human
Design: key to Q2 appearance of my skin around either of my eyes, Score: 1: Better; 2: Little better; 3: Same; 4: Little worse; 5: Worse
Settings: for Q3 how do you feel about the treated area surrounding your eyes and the appearance of wrinkles, % Responders Score 3: Score 3 = Neither satisfied or dissatisfied; for Q2 appearance of my skin around either of my eyes, % Responders Score 3: Score 3 = Same; for Q4 any discomfort, other than slight tingling, in the treated area during the study, % Responders Score 3: Score 3 = Yes, occasional discomfort lasting more than one hour; for Q1 My wrinkles in the eye area have improved, % Responders Score 4: Score 4 = Disagree; for Q3 how do you feel about the treated area surrounding your eyes and the appearance of wrinkles, % Responders Score 4: Score 4 = Dissatisfied; for Q2 appearance of my skin around either of my eyes, % Responders Score 4: Score 4 = Little worse; for Q4 any discomfort, other than slight tingling, in the treated area during the study, % Responders Score 4: Score 4 = Yes, every day lasting less than an hour; for Q1 My wrinkles in the eye area have improved, % Responders Score 5: Score 5 = Strongly disagree; for Q3 how do you feel about the treated area surrounding your eyes and the appearance of wrinkles, % Responders Score 5: Score 5 = Very Dissatisfied; for Q2 appearance of my skin around either of my eyes, % Responders Score 5: Score 5 = Worse; for Q4 any discomfort, other than slight tingling, in the treated area during the study, % Responders Score 5: Score 5 = Yes, everyday lasting more than an hour
Experimental: Three groups of women were recruited to evaluate and compare the efficacy of three anti-aging test products (targeting the periorbital eye area) intended to reduce the appearance of fine lines, wrinkles in the outer canthus of the eyes (crow's feet area) over a 12 week period. Wrinkle assessment was conducted instrumentally using a Visioscan image analysis system. Effectiveness of the test product was evaluated using panelist self-assessment via questionnaire responses comprised of 3-4 questions (Q1, Q2, Q3 & Q4). Each stage in the progression of treatments was photographically documented using a High Resolution Scientifically Matched Photography technique. Image analysis was utilized to quantify changes in fine lines and crow's feet condition observed in the Scientifically Matched Photographs.
Subject Selection: • Number: Six subjects (two per group) to complete the study. • Sex: Females • Race: Caucasian/Asian/Hispanic • Age Range: 40 through 60 years old
Test samples: • Topical 0.15% of Compound #222 in Oil (a 50/50 mixture of • Propylene Glycol Dicaprylate/Dicaprate and Caprylic/Capric Triglyceride) (Cohort 1) • Topical 0.15% of Compound #222 in PEG400 (Cohort 2) • Topical 0.05% of Compound #222 in PEG400 (Cohort 3)
All subjects were instructed to use the test material once a day, as part of their daily skin care routine. Immediately following baseline evaluations, the subjects were issued the product with the following instructions:
GROUP 1—Compound #222 Topical 0.15% in oil (Cohort 1): The subjects were instructed to hold the bottle at an angle such that the roller-ball was at bottom and apply the roller-ball to the periorbital area, including the crow's feet area, 2-3 times, starting from the area under the eye (and above the cheekbone) and moving up towards the outer tip of the eye-brow. After 2-3 rolls, they were able to see wetness on the treated area. This procedure was repeated for the other eye.
GROUPS 2 & 3 Compound #222 Topical 0.15% in PEG (Cohort 2) & Compound #222 Topical 0.05% in PEG (Cohort 3): The subjects were instructed to hold the dispenser upright with one hand and with the tip of the index finger on the pump (similar to holding a spray container), pour a small amount of the product into the palm of their other hand by pumping once or twice. The product was then applied on to the periorbital area, including the crow's feet area, of both eyes with their index finger.
[…] After acclimating to ambient conditions, High Resolution Scientifically Matched Photographs were be taken and biophysical measurements (Surface Evaluation of Living Skin via Visioscan) were repeated using the standard template to identify test sites on the face. In addition (during the acclimation period) all participants were be asked to fill out a self-assessment questionnaire.
The source data was Visioscan and PhotoGrammetrix Image Analysis readings along with subjective assessments, which were totaled and reported as average scores. Photographs were placed side by side as to compare the photographs of before and after application of the test product in the eye area. Wrinkle reduction analysis source data consisted of crow's feet area quantification in relative units (px), collected at baseline and, the week 2, 4, 8 and 12 evaluations. The data obtained via Visioscan and from PhotoGrammetrix Image Analysis was quoted as % differences from baseline at each of the previously described time points. A paired t-test analysis was conducted in order to compare the results of post test product application measurements to baseline measurements where applicable. Statistical significance was established if p≤(α=0.05) was calculated.

[1] = Day 7, Topical 0.05% in PEG (Cohort 3)
[2] = Day 7, Topical 0.15% in Oil (Cohort 1)
[3] = Day 7, Topical 0.15% in PEG (Cohort 2)
[4] = Day 14, Topical 0.05% in PEG (Cohort 3)
[5] = Day 14, Topical 0.15% in Oil (Cohort 1)
[6] = Day 14, Topical 0.15% in PEG (Cohort 2)

## O=C(CCC(=O)c1ccc2c(c1)OCO2)c1ccccc1 [#222]
[1]
  Q3 how do you feel about the treated area surrounding your eyes and the appearance of wrinkles, % Responders Score 3: 50%
  Q2 appearance of my skin around either of my eyes, % Responders Score 3: 0%
  Q4 any discomfort, other than slight tingling, in the treated area during the study, % Responders Score 3: 0%
  Q1 My wrinkles in the eye area have improved, % Responders Score 4: 0%
  Q3 how do you feel about the treated area surrounding your eyes and the appearance of wrinkles, % Responders Score 4: 0%
  Q2 appearance of my skin around either of my eyes, % Responders Score 4: 0%
  Q4 any discomfort, other than slight tingling, in the treated area during the study, % Responders Score 4: 0%
  Q1 My wrinkles in the eye area have improved, % Responders Score 5: 0%
  Q3 how do you feel about the treated area surrounding your eyes and the appearance of wrinkles, % Responders Score 5: 0%
  Q2 appearance of my skin around either of my eyes, % Responders Score 5: 0%
  Q4 any discomfort, other than slight tingling, in the treated area during the study, % Responders Score 5: 0%
[2]
  Q3 how do you feel about the treated area surrounding your eyes and the appearance of wrinkles, % Responders Score 3: 50%
  Q2 appearance of my skin around either of my eyes, % Responders Score 3: 50%
  Q4 any discomfort, other than slight tingling, in the treated area during the study, % Responders Score 3: 0%
  Q1 My wrinkles in the eye area have improved, % Responders Score 4: 0%
  Q3 how do you feel about the treated area surrounding your eyes and the appearance of wrinkles, % Responders Score 4: 0%
  Q2 appearance of my skin around either of my eyes, % Responders Score 4: 0%
  Q4 any discomfort, other than slight tingling, in the treated area during the study, % Responders Score 4: 0%
  Q1 My wrinkles in the eye area have improved, % Responders Score 5: 50%
  Q3 how do you feel about the treated area surrounding your eyes and the appearance of wrinkles, % Responders Score 5: 0%
  Q2 appearance of my skin around either of my eyes, % Responders Score 5: 0%
  Q4 any discomfort, other than slight tingling, in the treated area during the study, % Responders Score 5: 0%
[3]
  Q3 how do you feel about the treated area surrounding your eyes and the appearance of wrinkles, % Responders Score 3: 50%
  Q2 appearance of my skin around either of my eyes, % Responders Score 3: 50%
  Q4 any discomfort, other than slight tingling, in the treated area during the study, % Responders Score 3: 0%
  Q1 My wrinkles in the eye area have improved, % Responders Score 4: 50%
  Q3 how do you feel about the treated area surrounding your eyes and the appearance of wrinkles, % Responders Score 4: 0%
  Q2 appearance of my skin around either of my eyes, % Responders Score 4: 0%
  Q4 any discomfort, other than slight tingling, in the treated area during the study, % Responders Score 4: 0%
  Q1 My wrinkles in the eye area have improved, % Responders Score 5: 0%
  Q3 how do you feel about the treated area surrounding your eyes and the appearance of wrinkles, % Responders Score 5: 0%
  Q2 appearance of my skin around either of my eyes, % Responders Score 5: 0%
  Q4 any discomfort, other than slight tingling, in the treated area during the study, % Responders Score 5: 0%
[4]
  Q3 how do you feel about the treated area surrounding your eyes and the appearance of wrinkles, % Responders Score 3: 0%
  Q2 appearance of my skin around either of my eyes, % Responders Score 3: 0%
  Q4 any discomfort, other than slight tingling, in the treated area during the study, % Responders Score 3: 0%
  Q1 My wrinkles in the eye area have improved, % Responders Score 4: 0%
  Q3 how do you feel about the treated area surrounding your eyes and the appearance of wrinkles, % Responders Score 4: 0%
  Q2 appearance of my skin around either of my eyes, % Responders Score 4: 0%
  Q4 any discomfort, other than slight tingling, in the treated area during the study, % Responders Score 4: 0%
  Q1 My wrinkles in the eye area have improved, % Responders Score 5: 0%
  Q3 how do you feel about the treated area surrounding your eyes and the appearance of wrinkles, % Responders Score 5: 0%
  Q2 appearance of my skin around either of my eyes, % Responders Score 5: 0%
  Q4 any discomfort, other than slight tingling, in the treated area during the study, % Responders Score 5: 0%
[5]
  Q3 how do you feel about the treated area surrounding your eyes and the appearance of wrinkles, % Responders Score 3: 50%
  Q2 appearance of my skin around either of my eyes, % Responders Score 3: 50%
  Q4 any discomfort, other than slight tingling, in the treated area during the study, % Responders Score 3: 0%
  Q1 My wrinkles in the eye area have improved, % Responders Score 4: 50%
  Q3 how do you feel about the treated area surrounding your eyes and the appearance of wrinkles, % Responders Score 4: 0%
  Q2 appearance of my skin around either of my eyes, % Responders Score 4: 0%
  Q4 any discomfort, other than slight tingling, in the treated area during the study, % Responders Score 4: 0%
  Q1 My wrinkles in the eye area have improved, % Responders Score 5: 0%
  Q3 how do you feel about the treated area surrounding your eyes and the appearance of wrinkles, % Responders Score 5: 0%
  Q2 appearance of my skin around either of my eyes, % Responders Score 5: 0%
  Q4 any discomfort, other than slight tingling, in the treated area during the study, % Responders Score 5: 0%
[6]
  Q3 how do you feel about the treated area surrounding your eyes and the appearance of wrinkles, % Responders Score 3: 0%
  Q2 appearance of my skin around either of my eyes, % Responders Score 3: 50%
  Q4 any discomfort, other than slight tingling, in the treated area during the study, % Responders Score 3: 0%
  Q1 My wrinkles in the eye area have improved, % Responders Score 4: 50%
  Q3 how do you feel about the treated area surrounding your eyes and the appearance of wrinkles, % Responders Score 4: 50%
  Q2 appearance of my skin around either of my eyes, % Responders Score 4: 0%
  Q4 any discomfort, other than slight tingling, in the treated area during the study, % Responders Score 4: 50%
  Q1 My wrinkles in the eye area have improved, % Responders Score 5: 0%
  Q3 how do you feel about the treated area surrounding your eyes and the appearance of wrinkles, % Responders Score 5: 0%
  Q2 appearance of my skin around either of my eyes, % Responders Score 5: 0%
  Q4 any discomfort, other than slight tingling, in the treated area during the study, % Responders Score 5: 0%
Subject #1, Day 7, Topical 0.15% in Oil (Cohort 1)
  Q2 appearance of my skin around either of my eyes, Score: 3
Subject #1, Day 14, Topical 0.15% in Oil (Cohort 1)
  Q2 appearance of my skin around either of my eyes, Score: 3
Subject #2, Day 7, Topical 0.15% in Oil (Cohort 1)
  Q2 appearance of my skin around either of my eyes, Score: 2
Subject #2, Day 14, Topical 0.15% in Oil (Cohort 1)
  Q2 appearance of my skin around either of my eyes, Score: 2
Subject #3, Day 7, Topical 0.15% in PEG (Cohort 2)
  Q2 appearance of my skin around either of my eyes, Score: 2
Subject #3, Day 14, Topical 0.15% in PEG (Cohort 2)
  Q2 appearance of my skin around either of my eyes, Score: 2
Subject #4, Day 7, Topical 0.15% in PEG (Cohort 2)
  Q2 appearance of my skin around either of my eyes, Score: 3
Subject #4, Day 14, Topical 0.15% in PEG (Cohort 2)
  Q2 appearance of my skin around either of my eyes, Score: 3
Subject #5, Day 7, Topical 0.05% in PEG (Cohort 3)
  Q2 appearance of my skin around either of my eyes, Score: 1
Subject #5, Day 14, Topical 0.05% in PEG (Cohort 3)
  Q2 appearance of my skin around either of my eyes, Score: 1
Subject #6, Day 7, Topical 0.05% in PEG (Cohort 3)
  Q2 appearance of my skin around either of my eyes, Score: 2
Subject #6, Day 14, Topical 0.05% in PEG (Cohort 3)
  Q2 appearance of my skin around either of my eyes, Score: 2
